# Assay results: PMC10303271, “Synthesis and Receptor Binding Studies of α5 GABAAR Selective Novel Imidazodiazepines Targeted for Psychiatric and Cognitive Disorders” (Molecules, 2023)
# Key:
# H1 = molecular target: T1, H1 (Homo sapiens, UniProt P35367); assay: PDSP primary binding H1; details: primary binding, 10,000 nM; last figure of the line = mean of the 4 before it; read-out: H1, PDSP raw data, mean
# T1 construct: purchased NIMH Psychoactive Drug Screening Program (PDSP)
# Method: (§1) To determine if any off-target receptor-binding effects are present, all the novel ligands were sent to the National Institute of Mental Health (NIMH), Psychoactive Drug Screening Program (PDSP). The ligands were screened over a panel of 47 receptors, ion channels, and transporters to determine any other possible interactions with […]. The hERG-binding was also determined. […] No binding of the test compounds to calcium channels was observed. […] It is necessary to screen the compounds for hERG-binding during the early process of drug discovery. The unintentional binding of many drugs to hERG can cause blockade of hERG K+ channels in the heart, which can cause many side effects including cardiac arrhythmias and sudden death. […] All of the α5 imidazodiazepines were tested for hERG-binding.
# (§2) The NIMH PDSP assay protocol book [https://kidbdev.med.unc.edu/databases/PDSP%20Protocols%20II%202013-03-28.pdf accessed on 23 April 2023]. describes the protocols for primary and secondary radio-ligand binding assays. These assays were carried out in a final volume of 125 µL per well in the appropriate binding buffer.
# (§3) The binding of a ligand to a receptor, ion channel, or transporter was determined in the […] of 10 µM of the appropriate reference compound. […] Plates were incubated in the dark for 90 min at rt, and the reactions were stopped by vacuum filtration onto 0.3% polyethyleneimine (PEI) soaked 96-well filter mats using a 96-well Filtermateharvester. This was followed by three washes with cold PBS buffer. Radioactivity was then counted on a Microbeta counter. Nonlinear regression was used to analyze the data with N = 6 replicates.
# Alpha7 = assay: PDSP primary binding Alpha7; details: primary binding, 10,000 nM; last figure of the line = mean of the 4 before it
# Method: as §1, §2, §3
# Alpha1D = molecular target: T2, Alpha1D (Homo sapiens, UniProt P25100); assay: PDSP primary binding Alpha1D; details: 1.5 h; primary binding, 10,000 nM; last figure of the line = mean of the 4 before it; read-out: Alpha1D, PDSP raw data, mean
# T2 construct: purchased NIMH Psychoactive Drug Screening Program (PDSP)
# T2 sequence (P25100 1-572): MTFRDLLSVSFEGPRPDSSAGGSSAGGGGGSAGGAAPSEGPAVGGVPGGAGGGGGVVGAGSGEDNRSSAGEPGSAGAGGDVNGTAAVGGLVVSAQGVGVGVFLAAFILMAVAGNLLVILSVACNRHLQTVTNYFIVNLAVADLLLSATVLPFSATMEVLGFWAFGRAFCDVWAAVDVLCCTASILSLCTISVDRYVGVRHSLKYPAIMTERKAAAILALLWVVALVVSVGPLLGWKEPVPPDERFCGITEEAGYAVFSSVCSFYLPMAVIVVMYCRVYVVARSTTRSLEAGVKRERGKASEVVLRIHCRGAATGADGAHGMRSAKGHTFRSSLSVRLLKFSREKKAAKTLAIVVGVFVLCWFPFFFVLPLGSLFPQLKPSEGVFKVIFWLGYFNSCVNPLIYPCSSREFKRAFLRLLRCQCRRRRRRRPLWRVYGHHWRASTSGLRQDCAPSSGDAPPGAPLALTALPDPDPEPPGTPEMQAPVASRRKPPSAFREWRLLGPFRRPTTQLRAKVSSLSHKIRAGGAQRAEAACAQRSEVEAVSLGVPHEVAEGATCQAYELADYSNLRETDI
# Method: as §1, §2, §3
# Alpha2Beta2 = molecular target: T3, Alpha2Beta2 (Rattus norvegicus, UniProt P12389+P12390); assay: PDSP primary binding Alpha2Beta2; details: primary binding, 10,000 nM; last figure of the line = mean of the 4 before it; read-out: Alpha2Beta2, PDSP raw data, mean
# T3 construct: purchased NIMH Psychoactive Drug Screening Program (PDSP)
# Method: as §1, §2, §3
# Alpha3Beta4 = molecular target: T4, Alpha3Beta4 (Rattus norvegicus, UniProt P04757+P12392); assay: PDSP primary binding Alpha3Beta4; details: primary binding, 10,000 nM; last figure of the line = mean of the 4 before it; read-out: Alpha3Beta4, PDSP raw data, mean
# T4 construct: purchased NIMH Psychoactive Drug Screening Program (PDSP)
# Method: as §1, §2, §3
# M2 = molecular target: T5, M2 (Homo sapiens, UniProt P08172); assay: PDSP primary binding M2; details: primary binding, 10,000 nM; last figure of the line = mean of the 4 before it; read-out: M2, PDSP raw data, mean
# T5 construct: purchased NIMH Psychoactive Drug Screening Program (PDSP)
# T5 sequence (P08172 1-466): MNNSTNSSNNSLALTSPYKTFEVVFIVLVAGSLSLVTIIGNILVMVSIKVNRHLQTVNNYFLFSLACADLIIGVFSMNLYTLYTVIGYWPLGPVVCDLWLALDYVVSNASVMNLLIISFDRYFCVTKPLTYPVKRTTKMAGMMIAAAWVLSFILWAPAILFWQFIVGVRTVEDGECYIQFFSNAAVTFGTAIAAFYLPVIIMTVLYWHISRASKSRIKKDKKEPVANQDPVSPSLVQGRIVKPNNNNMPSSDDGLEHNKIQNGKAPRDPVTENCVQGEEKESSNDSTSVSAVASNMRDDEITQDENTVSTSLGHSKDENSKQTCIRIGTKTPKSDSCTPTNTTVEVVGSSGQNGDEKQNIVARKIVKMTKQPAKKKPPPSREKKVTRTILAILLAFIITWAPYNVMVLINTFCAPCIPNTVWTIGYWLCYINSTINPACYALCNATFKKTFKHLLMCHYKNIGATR
# Method: as §1, §2, §3
# Kainate (Rat Brain) = assay: PDSP primary binding Kainate (Rat Brain); details: primary binding, 10,000 nM; last figure of the line = mean of the 4 before it
# Method: as §1, §2, §3
# Beta1 = molecular target: T6, Beta1 (Homo sapiens, UniProt P08588); assay: PDSP primary binding Beta1; details: 1.5 h; primary binding, 10,000 nM; last figure of the line = mean of the 4 before it; read-out: Beta1, PDSP raw data, mean
# T6 construct: purchased NIMH Psychoactive Drug Screening Program (PDSP)
# Method: as §1, §2, §3
# BZP rat brain site = assay: PDSP binding at BZP rat brain site; details: for Ki: N = 2, read-out: Binding Affinity BZR Secondary Screening Ki; for Ki / Binding Affinity BZR % Inhibition (Primary): rat brain; for Binding Affinity BZR % Inhibition (Primary): at 10,000 nM, N = 5; for BZP Rat Brain Site, PDSP raw data, mean: primary binding, 10,000 nM, last figure of the line = mean of the 4 before it
# Method: The BZR binding affinity of the test compounds was also measured using rat brain BzR. […] The efficacy of imidazodiazepines on the benzodiazepine receptor depends on various factors, including the specific subtype of the receptor they bind to, their chemical structure, and the dose.
# as §2, §3
# NET = molecular target: T7, NET (Homo sapiens, UniProt P23975); assay: PDSP primary binding NET; details: primary binding, 10,000 nM; last figure of the line = mean of the 4 before it; read-out: NET, PDSP raw data, mean
# T7 construct: purchased NIMH Psychoactive Drug Screening Program (PDSP)
# Method: as §1, §2, §3
# T1 sequence (P35367 whole entry): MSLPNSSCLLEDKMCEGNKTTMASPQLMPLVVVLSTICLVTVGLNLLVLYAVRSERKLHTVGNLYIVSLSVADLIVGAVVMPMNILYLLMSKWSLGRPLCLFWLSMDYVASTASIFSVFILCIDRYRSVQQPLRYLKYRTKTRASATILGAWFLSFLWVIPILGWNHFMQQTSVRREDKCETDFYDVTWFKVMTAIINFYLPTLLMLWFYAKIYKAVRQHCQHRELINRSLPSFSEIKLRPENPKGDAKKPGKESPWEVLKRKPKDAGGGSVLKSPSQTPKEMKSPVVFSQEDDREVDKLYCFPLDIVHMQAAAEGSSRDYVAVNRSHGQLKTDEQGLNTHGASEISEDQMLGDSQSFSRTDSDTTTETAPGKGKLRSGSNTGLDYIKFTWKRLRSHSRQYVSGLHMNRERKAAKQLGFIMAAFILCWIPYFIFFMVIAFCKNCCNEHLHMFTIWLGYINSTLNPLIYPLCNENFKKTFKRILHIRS
# T4 sequence (P04757 26-499): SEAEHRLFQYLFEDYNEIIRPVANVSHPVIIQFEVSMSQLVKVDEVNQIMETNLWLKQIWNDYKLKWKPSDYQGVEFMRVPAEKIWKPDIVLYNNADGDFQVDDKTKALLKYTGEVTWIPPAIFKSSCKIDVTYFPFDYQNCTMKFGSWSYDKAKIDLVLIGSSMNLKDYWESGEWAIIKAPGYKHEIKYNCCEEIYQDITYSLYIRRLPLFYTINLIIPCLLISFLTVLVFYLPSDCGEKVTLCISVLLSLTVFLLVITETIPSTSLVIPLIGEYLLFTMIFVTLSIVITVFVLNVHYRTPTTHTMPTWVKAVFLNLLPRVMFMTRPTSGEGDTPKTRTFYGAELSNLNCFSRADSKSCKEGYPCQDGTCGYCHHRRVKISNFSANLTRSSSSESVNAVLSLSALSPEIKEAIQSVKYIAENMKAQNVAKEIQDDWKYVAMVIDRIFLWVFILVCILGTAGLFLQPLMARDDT
# T4 sequence (P12392 21-495): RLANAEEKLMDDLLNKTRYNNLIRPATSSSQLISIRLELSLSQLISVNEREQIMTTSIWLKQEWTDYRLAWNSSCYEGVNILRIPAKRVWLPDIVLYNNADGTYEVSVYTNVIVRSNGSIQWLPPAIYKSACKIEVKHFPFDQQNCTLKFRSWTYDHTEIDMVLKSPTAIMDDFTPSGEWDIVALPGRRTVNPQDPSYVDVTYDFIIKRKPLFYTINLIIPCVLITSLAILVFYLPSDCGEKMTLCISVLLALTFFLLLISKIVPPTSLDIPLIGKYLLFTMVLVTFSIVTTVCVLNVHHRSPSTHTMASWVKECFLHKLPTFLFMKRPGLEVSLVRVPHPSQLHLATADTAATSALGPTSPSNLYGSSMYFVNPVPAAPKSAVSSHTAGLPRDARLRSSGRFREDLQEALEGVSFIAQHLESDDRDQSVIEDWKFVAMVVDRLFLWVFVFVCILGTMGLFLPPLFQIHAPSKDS
# T6 sequence (P08588 whole entry): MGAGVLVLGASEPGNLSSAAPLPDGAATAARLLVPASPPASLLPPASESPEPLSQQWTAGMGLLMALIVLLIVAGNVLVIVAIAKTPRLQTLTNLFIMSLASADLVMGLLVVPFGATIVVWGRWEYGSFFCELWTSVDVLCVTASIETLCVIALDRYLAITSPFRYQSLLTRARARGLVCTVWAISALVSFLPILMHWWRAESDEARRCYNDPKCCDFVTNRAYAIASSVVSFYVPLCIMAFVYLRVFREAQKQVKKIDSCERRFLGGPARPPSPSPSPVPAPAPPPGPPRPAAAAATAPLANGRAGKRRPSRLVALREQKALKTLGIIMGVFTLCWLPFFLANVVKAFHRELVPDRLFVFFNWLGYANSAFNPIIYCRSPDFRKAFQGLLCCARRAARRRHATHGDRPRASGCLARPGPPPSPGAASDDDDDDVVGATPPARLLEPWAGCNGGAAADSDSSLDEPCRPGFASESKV
# T7 sequence (P23975 whole entry): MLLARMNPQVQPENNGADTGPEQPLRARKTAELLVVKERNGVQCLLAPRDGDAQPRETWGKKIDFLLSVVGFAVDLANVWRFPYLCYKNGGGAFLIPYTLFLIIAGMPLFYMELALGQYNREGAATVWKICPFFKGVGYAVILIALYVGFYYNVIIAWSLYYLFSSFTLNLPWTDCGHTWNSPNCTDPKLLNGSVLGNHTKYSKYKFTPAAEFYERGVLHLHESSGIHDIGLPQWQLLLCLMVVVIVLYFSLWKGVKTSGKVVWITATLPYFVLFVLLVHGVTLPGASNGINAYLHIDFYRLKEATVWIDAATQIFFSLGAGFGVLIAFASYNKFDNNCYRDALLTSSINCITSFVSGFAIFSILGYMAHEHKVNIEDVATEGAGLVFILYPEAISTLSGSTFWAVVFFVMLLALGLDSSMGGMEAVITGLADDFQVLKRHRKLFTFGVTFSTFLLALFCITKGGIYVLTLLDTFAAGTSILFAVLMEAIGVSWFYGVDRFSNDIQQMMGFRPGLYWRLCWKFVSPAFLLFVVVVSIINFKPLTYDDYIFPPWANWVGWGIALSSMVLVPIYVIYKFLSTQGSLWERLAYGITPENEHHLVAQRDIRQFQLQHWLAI
# T3 sequence (P12389 28-511): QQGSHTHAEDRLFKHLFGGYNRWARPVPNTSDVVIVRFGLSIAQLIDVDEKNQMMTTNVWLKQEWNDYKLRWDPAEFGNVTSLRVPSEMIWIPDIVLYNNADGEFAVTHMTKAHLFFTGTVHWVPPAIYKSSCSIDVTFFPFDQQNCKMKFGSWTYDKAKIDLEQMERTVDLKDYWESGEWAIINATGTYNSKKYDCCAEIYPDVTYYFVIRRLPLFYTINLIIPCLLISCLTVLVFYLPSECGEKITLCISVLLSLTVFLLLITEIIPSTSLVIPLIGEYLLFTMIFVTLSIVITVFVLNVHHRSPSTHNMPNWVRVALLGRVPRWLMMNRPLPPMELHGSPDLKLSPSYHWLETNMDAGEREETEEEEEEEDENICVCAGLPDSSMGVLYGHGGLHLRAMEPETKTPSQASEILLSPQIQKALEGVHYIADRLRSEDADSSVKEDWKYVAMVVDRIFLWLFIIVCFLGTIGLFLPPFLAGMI
# T3 sequence (P12390 25-500): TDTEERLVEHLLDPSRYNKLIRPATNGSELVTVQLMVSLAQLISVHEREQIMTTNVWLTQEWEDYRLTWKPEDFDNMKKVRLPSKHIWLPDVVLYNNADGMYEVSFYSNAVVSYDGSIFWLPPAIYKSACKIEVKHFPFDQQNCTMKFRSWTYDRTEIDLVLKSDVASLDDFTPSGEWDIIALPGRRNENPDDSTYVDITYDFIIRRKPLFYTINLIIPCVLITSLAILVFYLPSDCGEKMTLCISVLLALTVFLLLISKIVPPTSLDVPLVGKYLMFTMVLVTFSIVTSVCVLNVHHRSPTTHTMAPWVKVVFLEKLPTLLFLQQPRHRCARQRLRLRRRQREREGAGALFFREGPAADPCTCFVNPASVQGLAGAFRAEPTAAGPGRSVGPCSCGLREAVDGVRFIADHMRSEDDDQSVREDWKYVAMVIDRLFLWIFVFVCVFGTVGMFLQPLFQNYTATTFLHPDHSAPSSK
structure (smiles),measurement,setting,value
"C#Cc1ccc2c(c1)C(c1ccccn1)=N[C@@H](C)c1c(C(=O)N(C)C)ncn1-2 [Compound 31, (S)-8-Ethynyl-N,N,4-trimethyl-6-(pyridin-2′-yl)-4H-benzo[f]imidazo[1,5-a][1,4]diazepine-3-carboxamide]",inhibition at 10 µM,H1,-7.38%
same,"Alpha7, PDSP raw data, mean",Alpha7,-3.44%
same,inhibition at 10 µM,Alpha1D,-6.09%
same,inhibition at 10 µM,Alpha2Beta2,-2.25%
same,inhibition at 10 µM,Alpha3Beta4,-0.5%
same,inhibition at 10 µM,M2,3.03%
same,"Kainate (Rat Brain), PDSP raw data, mean",Kainate (Rat Brain),23.99%
same,inhibition at 10 µM,Beta1,-16.2%
same,Ki,BZP rat brain site,838 ± 107 nM
same,Binding Affinity BZR % Inhibition (Primary),BZP rat brain site,83.57 ± 1.57%
same,inhibition at 10 µM,NET,10.2%
"CC(C)c1noc(-c2ncn3c2[C@@H](C)N=C(c2ccccc2F)c2cc(Cl)ccc2-3)n1 [Compound 37, (R)-5-(8-Chloro-6-(2′-fluorophenyl)-4-methyl-4H-benzo[f]imidazo[1,5-a][1,4]diazepin-3-yl)-3-isopropyl-1,2,4-oxadiazole]",inhibition at 10 µM,H1,59%
same,"Alpha7, PDSP raw data, mean",Alpha7,21.26%
same,inhibition at 10 µM,Alpha1D,4.09%
same,inhibition at 10 µM,Alpha2Beta2,3.29%
same,inhibition at 10 µM,Alpha3Beta4,18.8%
same,inhibition at 10 µM,M2,-19.3%
same,"Kainate (Rat Brain), PDSP raw data, mean",Kainate (Rat Brain),35.39%
same,inhibition at 10 µM,Beta1,8.14%
same,"BZP Rat Brain Site, PDSP raw data, mean",BZP rat brain site,74.07%
same,inhibition at 10 µM,NET,9.04%
"CCc1noc(-c2ncn3c2[C@@H](C)N=C(c2ccccc2F)c2cc(-c4ccccc4)ccc2-3)n1 [Compound 35, (R)-3-Ethyl-5-(6-(2′-fluorophenyl)-4-methyl-8-phenyl-4H-benzo[f]imidazo[1,5-a][1,4]diazepin-3-yl)-1,2,4-oxadiazole]",inhibition at 10 µM,H1,10.5%
same,"Alpha7, PDSP raw data, mean",Alpha7,-23.18%
same,inhibition at 10 µM,Alpha1D,-0.4%
same,inhibition at 10 µM,Alpha2Beta2,4.18%
same,inhibition at 10 µM,Alpha3Beta4,12%
same,inhibition at 10 µM,M2,-7.95%
same,"Kainate (Rat Brain), PDSP raw data, mean",Kainate (Rat Brain),33.32%
same,inhibition at 10 µM,Beta1,0.99%
same,Binding Affinity BZR % Inhibition (Primary),BZP rat brain site,19.91 ± 7.21%
same,inhibition at 10 µM,NET,10.2%
"C#Cc1ccc2c(c1)C(c1ccccc1F)=N[C@H](C)c1c(C(=S)N(C)C)ncn1-2 [Compound 33, (R)-8-Ethynyl-6-(2′-fluorophenyl)-N,N,4-trimethyl-4H-benzo[f]imidazo[1,5-a][1,4]diazepine-3-carbothioamide]",inhibition at 10 µM,H1,-10.4%
same,"Alpha7, PDSP raw data, mean",Alpha7,-18.33%
same,inhibition at 10 µM,Alpha1D,3.57%
same,inhibition at 10 µM,Alpha2Beta2,-5.95%
same,inhibition at 10 µM,Alpha3Beta4,-0.77%
same,inhibition at 10 µM,M2,15.4%
same,"Kainate (Rat Brain), PDSP raw data, mean",Kainate (Rat Brain),3.43%
same,inhibition at 10 µM,Beta1,-15.8%
same,Ki,BZP rat brain site,871 ± 8.72 nM
same,"BZP Rat Brain Site, PDSP raw data, mean",BZP rat brain site,94.79%
same,inhibition at 10 µM,NET,-6%
"C[C@H]1N=C(c2ccccc2F)c2cc(Cl)ccc2-n2cnc(-c3nc(C4CC4)no3)c21 [Compound 38, (R)-5-(8-Chloro-6-(2′-fluorophenyl)-4-methyl-4H-benzo[f]imidazo[1,5-a][1,4]diazepin-3-yl)-3-cyclopropyl-1,2,4-oxadiazole]",inhibition at 10 µM,H1,58.4%
same,"Alpha7, PDSP raw data, mean",Alpha7,11.55%
same,inhibition at 10 µM,Alpha1D,-2.84%
same,inhibition at 10 µM,Alpha2Beta2,1.44%
same,inhibition at 10 µM,Alpha3Beta4,12.4%
same,inhibition at 10 µM,M2,-9.65%
same,"Kainate (Rat Brain), PDSP raw data, mean",Kainate (Rat Brain),36.46%
same,inhibition at 10 µM,Beta1,9.95%
same,"BZP Rat Brain Site, PDSP raw data, mean",BZP rat brain site,88.28%
same,inhibition at 10 µM,NET,-0.22%
